Values of other authors, collected in patent US20140037570A1, “NBPT solution for preparing urease inhibited urea fertilizers prepared from N-alkyl; N, N-alkyl; and N-alkyl-N-alkoxy amino alcohols” (Whitehurst Associates Inc., priority 2012, published 2014).

Conditions: background statement on NBPT

CCCCNP(N)(N)=S [NBPT, N-(n-butyl)thiophosphoric triamide]
stability: thermally unstable
